One assay deals with cIAP1-BIR3 (Homo sapiens (Human), UniProt Q13490). Description: BIR binding assay (FRET competition), cIAP1 BIR3. The note with it: for cIAP1 BIR3 vs BIR2 separation window: fold separation (FS) for cIAP1. The method in brief: (§1)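 Each domain is run separately at its own level: 50 nM cIAP1-BIR3, 100 nM XIAP-BIR3, 325 nM for cIAP1-BIR2 or cIAP2-BIR2. Probe is a 200 nM fluorescent SMAC peptide, and the value is IC50 from FRET competition.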

A further assay addresses XIAP-BIR3 (Homo sapiens (Human), UniProt P98170). Description: BIR binding assay (FRET competition), XIAP BIR3. The note with it: for XIAP BIR3 vs BIR2 separation window: fold separation (FS) for XIAP. Put shortly:
as §1

The target of the next assay is cIAP2-BIR3 (Homo sapiens (Human), UniProt Q13489). Description: BIR binding assay (FRET competition), cIAP2 BIR3. The settings on record: for cIAP2 BIR3 vs BIR2 separation window: fold separation (FS) for cIAP2.
Chain of cIAP2-BIR3 (Q13489 238-349): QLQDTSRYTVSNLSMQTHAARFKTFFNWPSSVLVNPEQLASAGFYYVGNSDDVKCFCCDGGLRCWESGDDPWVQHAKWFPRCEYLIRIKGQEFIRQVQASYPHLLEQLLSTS
Assay [1] relates to Jurkat HIV-luciferase clones. Description: Jurkat latency reversal assay. The format is cell-based. The note with it: Homo sapiens, 48 h; Jurkat latency reversal assay potency; read-out: Jurkat pEC50 (converted). The method in brief: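 Pooled Jurkat clones C16, 115 and N6, each carrying one or two integrated HIV-luciferase proviruses and kept in 500 nM EFV, were exposed to 3-fold, 14-point compound titrations in duplicate (10 μM top, 0.5% DMSO) for 48 h at 37° C. Luciferase luminescence was fitted by four-parameter logistic regression for EC50 and maximal percent activation versus vehicle.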

In another assay the target is XIAP-BIR2 (Homo sapiens (Human), UniProt P98170). Description: BIR binding assay (FRET competition), XIAP BIR2. The settings on record: FRET competition binding. Here is the method:
The BIR domain binding assays are FRET based competition assays that utilize His-tagged versions of each of the BIR2 and BIR3 domains from cIAP1, cIAP2, and XIAP (each domain assayed separately) each at a custom optimal concentration and a probe, 200 nM SMAC/DIABLO peptide AVPIAQKSE labelled with AlexaFluor647 (part #crb 1110326h, Discovery Peptides). The assay is conducted in 50 mM HEPES, […], 1 mM CHAPS, 5% Glycerol, 1 mM DTT, in dI water with a final pH of 7.4 and final volume of 20 uL. Final protein domain concentrations are: 50 nM cIAP1-BIR3 (Part #APT-11-370 Reaction Biology), 100 nM XIAP-BIR3 (Part #APT-11-351 Reaction Biology), 200 nM XIAP-BIR2 (Part #APT-11-470 Reaction Biology), 325 nM cIAP2-BIR2 (Part #APT-11-489 Reaction Biology), 50 nM cIAP2-BIR3 (Part #APT-11-372 Reaction Biology), 325 nM cIAP1-BIR2 (Part #APT-11-487 Reaction Biology). Compounds were plated using a HP Tecan D300 printer in a final total volume of 202 nl and DMSO concentration normalized across the 15-point, 3-fold dilution series. Peptide and probe were prepared at 2× relative to the concentrations above in binding buffer, 10 uL added to the prepared compound plates, and incubated for 60 minutes. LANCE Eu-W1024 (part #AD0401 Perkin Elmer #, vendor) was prepared at 2× concentration in binding buffer for final concentration of 2 nM, 10 uL added to each well, and plates incubated for 30 minutes. Plates were read on an ENVISION multifunction plate reader with […] laser excitation to obtain the 615 nm/665 nm emission ratio as indicative of probe:protein proximity. Data was analyzed using GraphPad PRISM and curves fit using log(inhibitor) vs. response—Variable slope (four […] method to obtain IC50 and pIC50 values.

A further assay deals with cIAP2-BIR2 (Homo sapiens (Human), UniProt Q13489). Description: BIR binding assay (FRET competition), cIAP2 BIR2. Put shortly:
as §1

The next assay concerns the target cIAP1-BIR2 (Homo sapiens (Human), UniProt Q13490). Description: BIR binding assay (FRET competition), cIAP1 BIR2. The method in brief:
as §1

Chain of XIAP-BIR3 (P98170 241-356): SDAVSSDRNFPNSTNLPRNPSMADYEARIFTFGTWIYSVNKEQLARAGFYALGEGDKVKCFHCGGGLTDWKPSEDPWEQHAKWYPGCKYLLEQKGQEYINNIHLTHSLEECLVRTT
Chain of cIAP1-BIR2 (Q13490 173-257): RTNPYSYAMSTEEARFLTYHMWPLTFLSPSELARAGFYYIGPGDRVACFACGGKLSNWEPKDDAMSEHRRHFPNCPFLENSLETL
Chain of cIAP1-BIR3 (Q13490 253-363): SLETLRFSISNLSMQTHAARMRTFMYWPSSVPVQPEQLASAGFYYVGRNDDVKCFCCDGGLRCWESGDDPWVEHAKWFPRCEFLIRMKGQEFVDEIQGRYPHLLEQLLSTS
Chain of cIAP2-BIR2 (Q13489 158-242): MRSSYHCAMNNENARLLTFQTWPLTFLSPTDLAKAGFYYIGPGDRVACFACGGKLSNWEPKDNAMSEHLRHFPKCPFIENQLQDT
Chain of XIAP-BIR2 (P98170 124-240): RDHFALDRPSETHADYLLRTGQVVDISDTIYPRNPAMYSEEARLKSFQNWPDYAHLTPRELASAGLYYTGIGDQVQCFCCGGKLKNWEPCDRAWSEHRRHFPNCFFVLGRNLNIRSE

In the case of `C[C@@H]1CN(CC(=O)N2CC(C)(C)c3[nH]c(=O)c(Cc4ccc(F)cc4)cc32)[C@@H](CN2CCO[C@H](COc3ccccc3Cc3ccccc3OC[C@@H]3CN(C[C@H]4CN[C@H](C)CN4CC(=O)N4CC(C)(C)c5[nH]c(=O)c(Cc6ccc(F)cc6)cc54)CCO3)C2)CN1` [Example 66, 1,1′-(2,2′-((3R,3′R,6R,6′R)-(((2S,2'S)-(((methylenebis(2,1-phenylene))bis(oxy))bis(methylene))bis(morpholine-2,4-diyl))bis(methylene))bis(3-methylpiperazine-6,1-diyl))bis(acetyl))bis(6-(4-fluorobenzyl)-3,3-dimethyl-1,2,3,4-tetrahydro-5H-pyrrolo[3,2-b]pyridin-5-one)], the IC50 on cIAP1-BIR3 is 0.0158 to 0.0316 µM; at XIAP-BIR3 it was 0.0158 to 0.0316 µM; on cIAP2-BIR3 it was 0.00794 to 0.0158 µM; at XIAP-BIR2 (read-out: XIAP BIR2 (pIC50) (converted)) it was 10 to 51.3 µM. At XIAP-BIR3, the “XIAP BIR3 vs BIR2 separation window” value was “++++ (FS>10,000)”. Besides, the EC50 in assay [1] was 0.00049 to 0.0126 µM.
As for `C[C@@H]1CN(CC(=O)N2CC(C)(C)c3[nH]c(=O)c(Cc4ccc(F)cc4)cc32)[C@@H](CN2CCO[C@H](COc3ccc(-c4ccccc4)c(OC[C@@H]4CN(C[C@H]5CN[C@H](C)CN5CC(=O)N5CC(C)(C)c6[nH]c(=O)c(Cc7ccc(F)cc7)cc65)CCO4)c3)C2)CN1` [Example 78, 1,1′-(2,2′-((3R,3′R,6R,6′R)-(((2S,2'S)—(([1,1′-biphenyl]-2,4-diylbis(oxy))bis(methylene))bis(morpholine-2,4-diyl))bis(methylene))bis(3-methylpiperazine-6,1-diyl))bis(acetyl))bis(6-(4-fluorobenzyl)-3,3-dimethyl-1,2,3,4-tetrahydro-5H-pyrrolo[3,2-b]pyridin-5-one)], the values for the IC50 on cIAP1-BIR3, on XIAP-BIR3 and on cIAP2-BIR3 were 0.00138 to 0.00794 µM, 0.00794 to 0.0158 µM and 0.00138 to 0.00794 µM, respectively. Also, the “XIAP BIR3 vs BIR2 separation window” value at XIAP-BIR3 is given as “+++ (10,000>FS>1,000)”. For the same compound, in assay [1], the EC50 was 0.0126 to 0.0631 µM. In addition, on XIAP-BIR2, the “XIAP BIR2 (pIC50)” value is recorded as “++ (5.00<pIC50<=5.50)”.
In the case of `Cc1cc(OC[C@@H]2CN(C[C@H]3CN[C@H](C)CN3CC(=O)N3CC(C)(C)c4[nH]c(=O)c(Cc5ccc(F)cc5)cc43)CCO2)cc(OC[C@@H]2CN(C[C@H]3CN[C@H](C)CN3CC(=O)N3CC(C)(C)c4[nH]c(=O)c(Cc5ccc(F)cc5)cc43)CCO2)c1` [Example 86, 1,1′-(2,2′-((3R,3′R,6R,6′R)-(((2S,2'S)-(((5-methyl-1,3-phenylene)bis(oxy))bis(methylene))bis(morpholine-2,4-diyl))bis(methylene))bis(3-methylpiperazine-6,1-diyl))bis(acetyl))bis(6-(4-fluorobenzyl)-3,3-dimethyl-1,2,3,4-tetrahydro-5H-pyrrolo[3,2-b]pyridin-5-one)], the IC50 lay in the range of 0.00794 to 0.0158 µM at cIAP1-BIR3; 0.0158 to 0.0316 µM on XIAP-BIR3; 1 to 3.16 µM at cIAP2-BIR2; 1 to 3.16 µM at cIAP1-BIR2; 0.00794 to 0.0158 µM on cIAP2-BIR3. Also, the “cIAP1 BIR3 vs BIR2 separation window” value on cIAP1-BIR3 is reported as “+++ (10,000>FS>1,000)”. In addition, the “cIAP2 BIR3 vs BIR2 separation window” value at cIAP2-BIR3 is “+++ (10,000>FS>1,000)”. For the same compound, in assay [1], the EC50 is 0.00049 to 0.0126 µM.
As for `C[C@@H]1CN(CC(=O)N2CC(C)(C)c3[nH]c(=O)c(Cc4ccc(F)cc4)cc32)[C@@H](CN2CCO[C@H](COc3ccc(Cl)c(OC[C@@H]4CN(C[C@H]5CN[C@H](C)CN5CC(=O)N5CC(C)(C)c6[nH]c(=O)c(Cc7ccc(F)cc7)cc65)CCO4)c3)C2)CN1` [Example 89, 1,1′-(2,2′-((3R,3′R,6R,6′R)-(((2S,2'S)-(((4-chloro-1,3-phenylene)bis(oxy))bis(methylene))bis(morpholine-2,4-diyl))bis(methylene))bis(3-methylpiperazine-6,1-diyl))bis(acetyl))bis(6-(4-fluorobenzyl)-3,3-dimethyl-1,2,3,4-tetrahydro-5H-pyrrolo[3,2-b]pyridin-5-one)], the IC50 on cIAP1-BIR3 fell in the range of 0.0158 to 0.0316 µM; on XIAP-BIR3, 0.0158 to 0.0316 µM; at cIAP2-BIR2, 1 to 3.16 µM; at cIAP1-BIR2, 3.16 to 10 µM; on cIAP2-BIR3 it was 0.00794 to 0.0158 µM. Further, the “cIAP1 BIR3 vs BIR2 separation window” value at cIAP1-BIR3 is given as “+++ (10,000>FS>1,000)”. For the same compound, on cIAP2-BIR3, the “cIAP2 BIR3 vs BIR2 separation window” value is reported as “+++ (10,000>FS>1,000)”. Further, the EC50 in assay [1] was 0.00049 to 0.0126 µM.
On to `C[C@@H]1CN(CC(=O)N2CC(C)(C)c3c2cc(Cc2ccc(F)cc2)c(=O)n3C)[C@@H](CN2CCO[C@H](COCC#CC#CCOC[C@@H]3CN(C[C@H]4CN[C@H](C)CN4CC(=O)N4CC(C)(C)c5c4cc(Cc4ccc(F)cc4)c(=O)n5C)CCO3)C2)CN1` [Example 116, 1,1′-(2,2′-((3R,3′R,6R,6′R)-(((2S,2'S)-((hexa-2,4-diyne-1,6-diylbis(oxy))bis(methylene))bis(morpholine-2,4-diyl))bis(methylene))bis(3-methylpiperazine-6,1-diyl))bis(acetyl))bis(6-(4-fluorobenzyl)-3,3,4-trimethyl-1,2,3,4-tetrahydro-5H-pyrrolo[3,2-b]pyridin-5-one)], for which the IC50 at cIAP1-BIR3 lay in the range of 0.0158 to 0.0316 µM; at XIAP-BIR3 it was 0.0316 to 0.501 µM; at cIAP2-BIR2 it was 3.16 to 10 µM; at cIAP1-BIR2 it was 3.16 to 10 µM; at cIAP2-BIR3, 0.0158 to 0.0316 µM. The “cIAP1 BIR3 vs BIR2 separation window” value at cIAP1-BIR3 was “+++ (10,000>FS>1,000)”. Further, the “cIAP2 BIR3 vs BIR2 separation window” value at cIAP2-BIR3 was “+++ (10,000>FS>1,000)”. Also, the EC50 in assay [1] was 0.316 to 3.31 µM.
In the case of `C[C@@H]1CN(CC(=O)N2CC(C)(C)c3[nH]c(=O)c(Cc4ccc(F)cc4)cc32)[C@@H](CN2CCO[C@H](C(=O)NCCCCCCCCNC(=O)[C@@H]3CN(C[C@H]4CN[C@H](C)CN4CC(=O)N4CC(C)(C)c5[nH]c(=O)c(Cc6ccc(F)cc6)cc54)CCO3)C2)CN1` [Example 119, (2S,2'S)-N,N′-(octane-1,8-diyl)bis(4-(((2R,5R)-1-(2-(6-(4-fluorobenzyl)-3,3-dimethyl-5-oxo-2,3,4,5-tetrahydro-1H-pyrrolo[3,2-b]pyridin-1-yl)-2-oxoethyl)-5-methylpiperazin-2-yl)methyl)morpholine-2-carboxamide)], the IC50 on cIAP1-BIR3 is 0.00138 to 0.00794 µM; at XIAP-BIR3, 0.00794 to 0.0158 µM; at cIAP2-BIR2, 0.0224 to 1 µM; at cIAP1-BIR2, 1 to 3.16 µM; on cIAP2-BIR3, 0.00138 to 0.00794 µM. In addition, at cIAP1-BIR3, the “cIAP1 BIR3 vs BIR2 separation window” value is listed as “+++ (10,000>FS>1,000)”. Besides, the “cIAP2 BIR3 vs BIR2 separation window” value at cIAP2-BIR3 is “+++ (10,000>FS>1,000)”. Further, the EC50 in assay [1] was 0.0126 to 0.0631 µM.
As for `C[C@@H]1CN(CC(=O)N2CC(C)(C)c3[nH]c(=O)c(Cc4ccc(F)cc4)cc32)[C@@H](CN2CCO[C@H](C(=O)NCCCCCCCCCCNC(=O)[C@@H]3CN(C[C@H]4CN[C@H](C)CN4CC(=O)N4CC(C)(C)c5[nH]c(=O)c(Cc6ccc(F)cc6)cc54)CCO3)C2)CN1` [Example 120, (2S,2'S)-N,N′-(decane-1,10-diyl)bis(4-(((2R,5R)-1-(2-(6-(4-fluorobenzyl)-3,3-dimethyl-5-oxo-2,3,4,5-tetrahydro-1H-pyrrolo[3,2-b]pyridin-1-yl)-2-oxoethyl)-5-methylpiperazin-2-yl)methyl)morpholine-2-carboxamide)], the IC50 was 0.00794 to 0.0158 µM at cIAP1-BIR3; 0.0158 to 0.0316 µM at XIAP-BIR3; 1 to 3.16 µM on cIAP2-BIR2; 1 to 3.16 µM on cIAP1-BIR2; 0.00794 to 0.0158 µM on cIAP2-BIR3. The “cIAP1 BIR3 vs BIR2 separation window” value on cIAP1-BIR3 is reported as “+++ (10,000>FS>1,000)”. For the same compound, the “cIAP2 BIR3 vs BIR2 separation window” value on cIAP2-BIR3 is reported as “+++ (10,000>FS>1,000)”. For the same compound, in assay [1], the EC50 is 0.0631 to 0.316 µM.
